Experiments:
[1] = molecular target: T1, MMP-1 (Homo sapiens, UniProt P03956); experiment: MMP-1 inhibition (thiopeptide or fluorescent peptide substrate); assay type: biochemical
T1 sequence (P03956 100-469): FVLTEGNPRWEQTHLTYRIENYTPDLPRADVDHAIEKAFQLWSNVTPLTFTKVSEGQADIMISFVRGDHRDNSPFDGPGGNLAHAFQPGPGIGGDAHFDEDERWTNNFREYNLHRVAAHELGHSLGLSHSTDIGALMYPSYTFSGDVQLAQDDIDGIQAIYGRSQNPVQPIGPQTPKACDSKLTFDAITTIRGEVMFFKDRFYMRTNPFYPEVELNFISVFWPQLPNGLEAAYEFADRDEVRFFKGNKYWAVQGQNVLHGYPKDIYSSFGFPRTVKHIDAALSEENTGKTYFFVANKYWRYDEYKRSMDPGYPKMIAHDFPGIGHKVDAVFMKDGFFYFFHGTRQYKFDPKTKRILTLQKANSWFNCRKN
Method: (§1) These standard pharmacological test procedures are based on the cleavage of a thiopeptide substrates such as Ac-Pro-Leu-Gly(2-mercapto-4-methyl-pentanoyl)-Leu-Gly-OEt by the matrix metalloproteinases MMP-1, MMP-13 (collagenases) or MMP-9 (gelatinase), which results in the release of a substrate product that reacts calorimetrically with DTNB (5,5′-dithiobis(2-nitro-benzoic acid)). The enzyme activity is measured by the rate of the color increase. The thiopeptide substrate is made up fresh as a 20 mM stock in 100% DMSO and the DTNB is dissolved in 100% DMSO as a 100 mM stock and stored in the dark at room temperature. […] The buffer enzyme, vehicle or inhibitor, and DTNB/substrate are added in this order to a 96 well plate (total reaction volume of 200 μl) and the increase in color is monitored spectrophotometrically for 5 minutes at 405 nm on a plate reader and the increase in color over time is plotted as a linear line.
(§2) Alternatively, a fluorescent peptide substrate is used. […] Upon cleavage of the substrate by an MMP, the fluorescence that is generated is quantitated on the fluorescence plate reader. […] The reaction is read (excitation 340 nm, emission 444 nm) for 10 min. and the increase in fluorescence over time is plotted as a linear line.
(§3) For either the thiopeptide or fluorescent peptide test procedures, the slope of the line is calculated and represents the reaction rate. […]

[2] = test system: THP-1 cells; experiment: THP-1 soluble protein assay (LPS-stimulated THP-1 cells, ELISA); assay type: cell-based; details: Homo sapiens
From the text: Mitogenic stimulation of THP-1 cells cause differentiation into macrophage like cells with concomitant secretion of tumor necrosis factor (TNF-_) and TNF receptor (TNF-R p75/80 and TNF-R p55/60) and Interleukin-8 (IL-8), among other proteins. In addition, non-stimulated THP-1 cells shed both the p75/80 and the p55/60 receptors over time. The release of membrane bound TNF-_ and possibly TNF-R p75/80 and TNF-R p55/60, but not IL-8, is mediated by an enzyme called TNF-_ converting enzyme or TACE.
THP-1 cells (from ATCC) are a human monocytic cell line which were obtained from the peripheral blood of a person with acute monocytic leukemia. […]
To perform an assay, the THP-1 cells are co-incubated in a 24 well plate with […] of a 24 mg/ml stock of Lipopolysacharide (LPS) (Calbiochem Lot#B13189) at 37iC in 5% CO2 at a concentration of 1.091×10^6 cells/ml (1.1 ml/well) for a total of 24 hours. […] Compounds can be evaluated for their effect on basal (non-stimulated) shedding of the receptors by replacing the LPS with […] of THP-1 media. […]
In addition, at the 24 hours timepoint, and the cells for each treatment group are collected by resuspension in 500 μl/well of THP-1 media and transferred into a FACS tube. […] The samples are run on a Becton Dickinson FaxCaliber FLOW cytometry machine and the amount of dye taken up by each cell is measured in the high red wavelength (FL3). […]

[3] = molecular target: MMP-9 (Homo sapiens, UniProt P14780); experiment: MMP-9 inhibition (thiopeptide or fluorescent peptide substrate); assay type: biochemical
Method: as §1, §2, §3

[4] = molecular target: TACE (Homo sapiens, UniProt P78536); experiment: TACE inhibition (fluorescent peptidyl substrate); assay type: biochemical
Method: Using 96-well black microtiter plates, each well receives a solution composed of 10 μL TACE (final concentration 1 μg/mL), 70 μL Tris buffer, pH 7.4 containing 10% glycerol (final concentration 10 mM), and 10 μL of test compound solution in DMSO (final concentration 1 μM, DMSO concentration <1%) and incubated for 10 minutes at room temperature. The reaction is initiated by addition of a fluorescent peptidyl substrate (final concentration 100 μM) to each well and then shaking on a shaker for 5 sec.
The reaction is read (excitation 340 nm, emission 420 nm) for 10 min. and the increase in fluorescence over time is plotted as a linear line. The slope of the line is calculated and represents the reaction rate.
The linearity of the reaction rate is confirmed (r^2>0.85). The mean (x±sem) of the control rate is calculated and compared for statistical significance (p<0.05) with drug-treated rates using Dunnett's multiple comparison test. Dose-response relationships can be generate using multiple doses of drug and IC50 values with 95% CI are estimated using linear regression.

[5] = molecular target: MMP-13 (Homo sapiens, UniProt P45452); experiment: MMP-13 inhibition (thiopeptide or fluorescent peptide substrate); assay type: biochemical
Method: as §1, §2, §3

Chain of MMP-9 (P14780 94-707): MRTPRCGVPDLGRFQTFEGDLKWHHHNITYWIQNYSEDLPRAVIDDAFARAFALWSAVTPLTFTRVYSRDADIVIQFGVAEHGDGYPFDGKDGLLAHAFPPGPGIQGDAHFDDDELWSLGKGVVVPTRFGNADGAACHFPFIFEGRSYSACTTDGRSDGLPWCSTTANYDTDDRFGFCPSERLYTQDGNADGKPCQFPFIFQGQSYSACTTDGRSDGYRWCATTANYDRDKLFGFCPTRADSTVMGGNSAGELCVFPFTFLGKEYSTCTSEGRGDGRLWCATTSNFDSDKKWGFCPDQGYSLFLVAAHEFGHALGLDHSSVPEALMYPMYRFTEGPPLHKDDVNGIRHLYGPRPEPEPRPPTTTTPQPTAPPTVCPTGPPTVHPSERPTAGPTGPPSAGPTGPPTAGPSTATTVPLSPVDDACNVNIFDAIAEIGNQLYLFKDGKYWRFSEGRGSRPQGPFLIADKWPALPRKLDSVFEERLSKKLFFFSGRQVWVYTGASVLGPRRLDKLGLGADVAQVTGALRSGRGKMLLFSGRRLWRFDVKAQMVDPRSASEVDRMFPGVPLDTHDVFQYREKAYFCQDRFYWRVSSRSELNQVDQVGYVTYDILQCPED
Chain of TACE (P78536 215-824): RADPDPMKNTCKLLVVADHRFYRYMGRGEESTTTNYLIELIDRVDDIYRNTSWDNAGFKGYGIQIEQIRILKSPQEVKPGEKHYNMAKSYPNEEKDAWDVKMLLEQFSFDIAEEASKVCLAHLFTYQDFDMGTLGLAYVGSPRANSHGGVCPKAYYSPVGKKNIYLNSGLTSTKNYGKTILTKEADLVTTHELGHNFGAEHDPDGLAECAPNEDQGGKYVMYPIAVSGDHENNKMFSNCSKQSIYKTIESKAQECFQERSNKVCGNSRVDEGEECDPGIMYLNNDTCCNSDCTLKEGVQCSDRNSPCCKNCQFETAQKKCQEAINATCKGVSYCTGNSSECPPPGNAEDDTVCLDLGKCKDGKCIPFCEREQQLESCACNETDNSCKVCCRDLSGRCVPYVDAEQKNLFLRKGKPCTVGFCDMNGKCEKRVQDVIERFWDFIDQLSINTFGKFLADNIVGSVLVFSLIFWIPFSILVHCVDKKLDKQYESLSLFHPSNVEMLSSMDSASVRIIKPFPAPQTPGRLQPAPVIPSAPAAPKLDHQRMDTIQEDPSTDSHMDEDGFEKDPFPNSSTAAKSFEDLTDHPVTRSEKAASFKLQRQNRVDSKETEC

In the case of `CC#CCOc1ccc(S(=O)(=O)N(C)[C@H](C)CS)cc1` [Example 8, 4-But-2-ynyloxy-N-((1R)-2-mercapto-1-methyl-ethyl)-N-methyl-benzenesulfonamide], the IC50 [1] is reported as 6300 nM, the inhibition at 3 µM [2] is reported as 3% and the IC50 [3] is reported as 2700 nM. The IC50 [4] was 273 nM and the IC50 [5] was 679 nM.
